Several values for one entry are separate records, joined by “and”; a condition that tells them apart may be missing. Identical values can stand only once. Toxic doses and inconclusive results are not listed. No stated cut-off is given here; in the data, active means T/C of 150% or more; inactive means T/C below 125%.
Tested on: L1210 leukemia ip in BDF1 mice, survival T/C
Test: NCI In Vivo Anticancer Drug Screen. Data for tumor model L1210 Leukemia (intraperitoneal) in B6D2F1 (BDF1) mice
Settings: endpoint: mean survival time, higher = longer survival
Outline: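 Tumor was transplanted into mice, which were then dosed with test compound or vehicle alone. Survival was recorded for each group, and the treated figure was expressed relative to the control figure.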

[1] = dose: 100.0 mg/kg/injection, schedule: Q01DX009 (ip), vehicle: saline with Tween-80
[2] = dose: 100.0 mg/kg/injection, schedule: Q04DX003 (ip), vehicle: saline with Tween-80
[3] = dose: 200.0 mg/kg/injection, schedule: Q01DX009 (ip), vehicle: saline with Tween-80
[4] = dose: 200.0 mg/kg/injection, schedule: Q04DX003 (ip), vehicle: saline with Tween-80
[5] = dose: 400.0 mg/kg/injection, schedule: Q04DX003 (ip), vehicle: saline with Tween-80
[6] = dose: 50.0 mg/kg/injection, schedule: Q01DX001 (ip), vehicle: saline
[7] = dose: 100.0 mg/kg/injection, schedule: Q01DX001 (ip), vehicle: saline
[8] = dose: 200.0 mg/kg/injection, schedule: Q01DX001 (ip), vehicle: saline
[9] = dose: 400.0 mg/kg/injection, schedule: Q01DX001 (ip), vehicle: saline
[10] = dose: 100.0 mg/kg/injection, schedule: Q01DX009 (ip), vehicle: Klucel (hydroxypropylcellulose) (HPC)
[11] = dose: 200.0 mg/kg/injection, schedule: Q01DX009 (ip), vehicle: Klucel (hydroxypropylcellulose) (HPC)
[12] = dose: 400.0 mg/kg/injection, schedule: Q01DX009 (ip), vehicle: Klucel (hydroxypropylcellulose) (HPC)
[13] = dose: 100.0 mg/kg/injection, schedule: Q04DX003 (ip), vehicle: Klucel (hydroxypropylcellulose) (HPC)
[14] = dose: 200.0 mg/kg/injection, schedule: Q04DX003 (ip), vehicle: Klucel (hydroxypropylcellulose) (HPC)
[15] = dose: 50.0 mg/kg/injection, schedule: Q01DX009 (ip), vehicle: saline
[16] = dose: 75.0 mg/kg/injection, schedule: Q01DX001 (ip), vehicle: saline
[17] = dose: 100.0 mg/kg/injection, schedule: Q01DX009 (ip), vehicle: saline
[18] = dose: 400.0 mg/kg/injection, schedule: Q04DX003 (ip), vehicle: Klucel (hydroxypropylcellulose) (HPC)
[19] = dose: 12.5 mg/kg/injection, schedule: Q01DX009 (ip), vehicle: Klucel (hydroxypropylcellulose) (HPC)
[20] = dose: 25.0 mg/kg/injection, schedule: Q01DX009 (ip), vehicle: Klucel (hydroxypropylcellulose) (HPC)
[21] = dose: 50.0 mg/kg/injection, schedule: Q01DX009 (ip), vehicle: Klucel (hydroxypropylcellulose) (HPC)

Measured: T/C

CCOC(=O)C(CC)C1=CCCCC1 (configuration not stated)
inactive: [1] 97 % of control | [2] 91 % of control | [3] 103 % of control | [4] 99 % of control | [5] 91 % of control

CC1=[N+](CCS(C)(=O)=O)C(C)CCC1 (configuration not stated)
inactive: [6] 115 % of control | [7] 110 % of control | [8] 106 % of control | [9] 106 % of control

CSc1ccccc1C1CCCCCC1OS(=O)(=O)c1ccc(C)cc1 (configuration not stated)
inactive: dose: 15.0 mg/kg/injection, schedule: Q01DX001 (ip), vehicle: carboxymethylcellulose (CMC) 96 % of control | dose: 30.0 mg/kg/injection, schedule: Q01DX001 (ip), vehicle: carboxymethylcellulose (CMC) 102 % of control

CCCCN(Cc1ccccc1)C(=S)Nc1ccccc1
inactive: [10] 106 % of control | [11] 108 % of control | [12] 108 % of control

OC1(C#[C][Hg][C]#CC2(O)CCCCC2)CCCCC1
inactive: [13] 98 % of control | [14] 100 % of control

O=C(CBr)CC(=O)Nc1ccccc1
inactive: dose: 25.0 mg/kg/injection, schedule: Q01DX009 (ip), vehicle: saline with Tween-80 97 % of control | dose: 50.0 mg/kg/injection, schedule: Q01DX009 (ip), vehicle: saline with Tween-80 91 % of control

CCn1nnnc1-c1ccc(Cl)cc1
inactive: [2] 98 % of control | [4] 98 % of control | [5] 98 % of control

NC1NC(=O)C(CCCOc2ccc([N+](=O)[O-])cc2)C(c2ccccc2)N1 (configuration not stated)
inactive: [10] 91 % of control | [11] 110 % of control | [12] 89 % of control

CC(C)NCC(O)c1ccc(O)c(O)c1 (configuration not stated)
inactive: [15] 103 % of control | [16] 105 % of control | [10] 108 % of control and 111 % of control | [17] 110 % of control | [13] 104 % of control | dose: 150.0 mg/kg/injection, schedule: Q01DX001 (ip), vehicle: saline 100 % of control | [11] 113 % of control | dose: 200.0 mg/kg/injection, schedule: Q01DX009 (ip), vehicle: saline 114 % of control | [14] 100 % of control | dose: 300.0 mg/kg/injection, schedule: Q01DX001 (ip), vehicle: saline 123 % of control | [18] 100 % of control

O=[N+]([O-])c1ccc(/C=N/N2CCCCC2)s1
inactive: [2] 97 % of control | [4] 92 % of control | [5] 89 % of control

Nc1c(Cl)ncn2[nH]c(=O)nc12
inactive: dose: 100.0 mg/kg/injection, schedule: Q01DX001 (ip), vehicle: carboxymethylcellulose (CMC) 96 % of control | dose: 200.0 mg/kg/injection, schedule: Q01DX001 (ip), vehicle: carboxymethylcellulose (CMC) 100 % of control

Cc1ccc2c(c1)S(=O)(=O)N(C)C(c1ccccc1)=C2
inactive: dose: 100.0 mg/kg/injection, schedule: Q01DX001 (ip), vehicle: steriod suspending solution 96 % of control | dose: 200.0 mg/kg/injection, schedule: Q01DX001 (ip), vehicle: steriod suspending solution 105 % of control | dose: 400.0 mg/kg/injection, schedule: Q01DX001 (ip), vehicle: steriod suspending solution 86 % of control

CCCCOC(=O)C1OC1(C)c1ccc(C)cc1 (configuration not stated)
inactive: [1] 103 % of control | [3] 113 % of control | dose: 400.0 mg/kg/injection, schedule: Q01DX009 (ip), vehicle: saline with Tween-80 100 % of control

NC(=S)N/N=C1\CC(c2ccccc2)Oc2ccccc21 (configuration not stated)
inactive: [7] 88 % of control

CN(C)CCCNC1=C(Cl)C(=O)C(NCCCN(C)C)=C(Cl)C1=O
inactive: dose: 100.0 mg/kg/injection, schedule: Q04DX003 (ip), vehicle: acetone 89 % of control

O=S1(=O)CC(N2CCCCC2)C1
inactive: [16] 103 % of control

CCCCCCCCCCCCN=Cc1cc(Cl)ccc1O
inactive: dose: 222.0 mg/kg/injection, schedule: Q01DX Z (ip), vehicle: methylcellulose (MC) 95 % of control | dose: 333.0 mg/kg/injection, schedule: Q01DX Z (ip), vehicle: methylcellulose (MC) 102 % of control | dose: 500.0 mg/kg/injection, schedule: Q01DX Z (ip), vehicle: methylcellulose (MC) 102 % of control

C(CCC1CCCC1)=C(CCCC1CCCC1)CCCC1CCCC1
inactive: dose: 100.0 mg/kg/injection, schedule: Q01DX001 (ip), vehicle: saline with Tween-80 100 % of control | dose: 200.0 mg/kg/injection, schedule: Q01DX001 (ip), vehicle: saline with Tween-80 94 % of control | dose: 400.0 mg/kg/injection, schedule: Q01DX001 (ip), vehicle: saline with Tween-80 91 % of control

CC(C)=CCN(CC=C(C)C)CCC(C)(C(N)=O)c1cccc2ccccc12 (configuration not stated)
inactive: dose: 6.25 mg/kg/injection, schedule: Q01DX009 (ip), vehicle: Klucel (hydroxypropylcellulose) (HPC) 101 % of control | dose: 6.25 mg/kg/injection, schedule: Q04DX003 (ip), vehicle: Klucel (hydroxypropylcellulose) (HPC) 104 % of control | [19] 98 % of control | dose: 12.5 mg/kg/injection, schedule: Q04DX003 (ip), vehicle: Klucel (hydroxypropylcellulose) (HPC) 100 % of control | [20] 101 % of control | dose: 25.0 mg/kg/injection, schedule: Q04DX003 (ip), vehicle: Klucel (hydroxypropylcellulose) (HPC) 105 % of control

NC(=O)NC(N)=S
inactive: [2] 99 % of control | [4] 103 % of control | [5] 103 % of control

O=C(c1ccccc1)c1ccc(Cl)c(Cl)c1
inactive: [13] 98 % of control | [14] 89 % of control | [18] 93 % of control

CC(=O)Nc1cc(NC(C)=O)cc(N(CCO)CCO)c1
inactive: dose: 25.0 mg/kg/injection, schedule: Q01DX009 (ip), vehicle: water 97 % of control | dose: 50.0 mg/kg/injection, schedule: Q01DX009 (ip), vehicle: water 100 % of control | dose: 100.0 mg/kg/injection, schedule: Q01DX009 (ip), vehicle: water 106 % of control | dose: 400.0 mg/kg/injection, schedule: Q01DX009 (ip), vehicle: water 106 % of control

C[N+](C)(C)CC(O)CC#N (configuration not stated)
inactive: [19] 98 % of control | [20] 96 % of control | [21] 93 % of control

O=C(O)CNc1nc(Cl)nc(NCC(=O)O)n1
inactive: [21] 106 % of control | [10] 89 % of control

CC(C)c1cc(C(C)C)c(S(=O)(=O)C2CC2c2ccccc2)c(C(C)C)c1 (configuration not stated)
inactive: [7] 112 % of control | [8] 93 % of control | [9] 91 % of control

[Cl][Sn]([Cl])([c]1ccccc1)[c]1ccccc1.c1ccncc1
inactive: dose: 25.0 mg/kg/injection, schedule: Q01DX009 (ip), vehicle: saline 111 % of control | [15] 114 % of control | [17] 96 % of control

CC(=S)N1CCCCC1
inactive: dose: 50.0 mg/kg/injection, schedule: Q01DX001 (ip), vehicle: carboxymethylcellulose (CMC) 100 % of control

O=C(OCCN(CCOC(=O)c1ccc([N+](=O)[O-])cc1)c1c[nH]c(=O)[nH]c1=O)c1ccc([N+](=O)[O-])cc1
inactive: [6] 93 % of control | [7] 93 % of control | [8] 93 % of control | [9] 110 % of control

Cc1cnc(Cl)c(Br)c1
inactive: [2] 100 % of control | [4] 102 % of control | [5] 98 % of control

O=C1OC2CCCCC2OC1=O (configuration not stated)
inactive: [7] 101 % of control | [8] 101 % of control

— PubChem BioAssay AID248 (DTP/NCI, 2004)
